How the values were obtained:
[1] = system: dandruff; details: 7 subjects; also decreased for placebo
Experimental: (§1) Panellists consisting of males and females were used. Their scalps were assessed to confirm they were suffering from dandruff. The scalps were divided into two, from the centre of the forehead to the nape of the neck. Four sites of similar scalp condition, two on each side of the head, were identified.
(§2) Panellists were assessed for scalp condition then suitable subjects given a placebo shampoo (ie. non anti-dandruff) to use for approximately 5 weeks. They were then asked to return, having not washed their hair or applied products to it for 48 hours. They were re-assessed then tape stripped at one site on each side o: the head ([…]). They then returned to be salon washed, by salon operators, 3 times their week with ½ of each head washed in the placebo and the other ½ in a shampoo containing 1% ZnPTO. After approximately 4 weeks, they were assessed and tape stripped again an adjacent sites to the first two.

[2] = system: scalp stratum corneum
Experimental: as §1, §2
Samples were collected by parting the hair and lightly swabbing with an alcohol swab to remove excess sebum. A total of eight sequential tapestrips were taken from each site. These were stored frozen until required for analysis.
The corneocytes were removed from the tapes by sonicating in methanol and the free lipid was extracted from them in a chloroform/methanol mixture, which was then dried under nitrogen. The residue was reconstituted in chloroform arid the lipid species separated on amino-propyl bonded silica gel columns.
The lipids were then separated and quantified using HPTLC. The lipids analysed were total fatty acids, cholesterol, triglycerides and ceramides. The ceramides were separated into the individual ceramides that are normally seen. The covalently bound lipids were not analysed here. The protein content of the samples were measured and the lipid levels expressed as ng lipid per μg protein. The individual ceramides were also expressed as relative % of total ceramides.

[3] = after vs before, significant only after the ZnPTO treatment

Substance: zinc pyrithione [ZnPTO]
- Mean dandruff scores after treatment compared with before treatment [1]: decreased
- Relative % lipids in scalp stratum corneum: Cholesterol ([2]; After ZnPTO, approx 4 weeks, spread 1.4 in row below, Before ZnPTO 11.6 ± 4.5): 8.8%
- Relative % lipids in scalp stratum corneum: Ceramides ([2]; After ZnPTO, approx 4 weeks, spread 3.8 in row below, Before ZnPTO 31.0 ± 8.1): 16.4%
- Relative % lipids in scalp stratum corneum: Fatty Acids ([2]; After ZnPTO, approx 4 weeks, spread 16.6 in row below, Before ZnPTO 36.0 ± 12.5): 31.8%
- Relative % lipids in scalp stratum corneum: Triglycerides ([2]; After ZnPTO, approx 4 weeks, spread 19.2 in row below, Before ZnPTO 21.4 ± 4.8): 43.0%
- Mass level of lipid: Fatty Acids ([2]; After ZnPTO: shampoo containing 1% ZnPTO, 3 washes per week, approx 4 weeks, half-head, spread 748.6 in row below, Before ZnPTO 364.9 ± 231.9): 1518.1 ng lipid per μg protein
- Mass level of lipid: Cholesterol ([2]; After ZnPTO: shampoo containing 1% ZnPTO, approx 4 weeks, spread 221.8 in row below, Before ZnPTO 108.9 ± 44.3): 478.3 ng lipid per μg protein
- Mass level of lipid: Ceramides ([2]; After ZnPTO: shampoo containing 1% ZnPTO, approx 4 weeks, spread 243.9 in row below, Before ZnPTO 284.3 ± 62.4): 841.5 ng lipid per μg protein
- Mass level of lipid: Triglycerides ([2]; After ZnPTO: shampoo containing 1% ZnPTO, approx 4 weeks, spread 1911.2 in row below, Before ZnPTO 208.5 ± 77.1): 2539.7 ng lipid per μg protein
- Mass level of lipid: Total Lipid ([2]; After ZnPTO: shampoo containing 1% ZnPTO, approx 4 weeks, spread 2056.0 in row below, Before ZnPTO 966.6 ± 282.5): 5377.6 ng lipid per μg protein
- Ceramide 6i as % of total ceramides ([2]; After ZnPTO, spread 2.0 in row below, Before ZnPTO 9.2 ± 1.1): 8.0%
- Ceramide 6ii as % of total ceramides ([2]; After ZnPTO, spread 2.1 in row below, Before ZnPTO 13.8 ± 2.1): 8.0%
- Ceramide 3a as % of total ceramides ([2]; After ZnPTO, spread 2.8 in row below, Before ZnPTO 12.4 ± 1.7): 19.2%
- Ceramide 3 as % of total ceramides ([2]; After ZnPTO, spread 4.0 in row below, Before ZnPTO 11.8 ± 3.9): 5.9%
- Ceramide 1 as % of total ceramides ([2]; After ZnPTO, spread 5.3 in row below, Before ZnPTO 11.3 ± 4.1): 14.6%
- Ceramide 2 as % of total ceramides ([2]; After ZnPTO, spread 5.4 in row below, Before ZnPTO 19.4 ± 4.5): 22.3%
- Ceramide 4/5 as % of total ceramides ([2]; After ZnPTO, spread 5.9 in row below, Before ZnPTO 22.2 ± 3.0): 22.1%
- Relative composition of the samples after treatment, placebo vs ZnPTO ([2]; after treatment): no significant differences
- All the lipids measured, mass levels after ZnPTO treatment compared with before treatment ([2]; after vs before treatment): significantly increased
- Change in relative % cholesterol with treatment ([2]; after vs before treatment): do not change
- Change in relative % fatty acid with treatment ([2]; after vs before treatment): do not change
- Change in relative % ceramide after treatment ([2]; after vs before treatment, also after placebo): significantly decreases
- Change in % triglyceride after treatment ([2]; after vs before treatment, significant for ZnPTO): increase in % triglyceride, which is significant for ZnPTO
- Change in relative % ceramide 6ii after treatment ([2]; after vs before, after both treatments): statistically significant decrease
- Change in relative % ceramide 3a after treatment [2, 3]: increase in ceramide 3a
- Change in relative % ceramide 3 after treatment [2, 3]: decrease in ceramide 3
- Level of ceramide, side treated with ZnPTO vs side treated with placebo ([2]; sites sampled after treatment): significantly higher
- Level of cholesterol, side treated with ZnPTO vs side treated with placebo ([2]; sites sampled after treatment): significantly higher
